The nature of data set [1]: pH measurement of solutions. The settings on record: 32% NaOCl. In kind it is physicochemical. The protocol:
In another study, how quickly washing must be initiated was studied. AA wash was formulated as described above and used just after injury, 10 minutes after injury or 2 hours after injury. […] However this solution took 3.5 hours of rapid mixing to fully go into solution and the another 1.5 hours to adjust the pH which initially feel below to a pH of 3.25.
(§1) Prior to each experiment (<1 h), NaOCl (CASRN 7681-52-9, Sigma-Aldrich, St. Louis, MO) was freshly diluted in sterile deionized water, mixed by five tube inversions prior to each application, and applied directly to the eyes (corneas) by transferring 100 μL with a micropipette into the dosing ring (FIG. 12A); the corneas were then exposed to this solution for exactly 1 min. Immediately after exposure, corneas were rinsed for exactly 30 s by forcefully dispensing 20 mL saline (9 g/L NaCl) from an eye rinsing syringe (part of the IVD kit). The pH of the 32% NaOCl was measured using a Fisherbrand™ Accumet™ AB150 pH benchtop meter (Fisher Scientific, Waltham, MA).

Data set [2] deals with corneal stromal cell (keratocytes) nuclei. The data set can be described thus: NaOCl titration study, TUNEL positive nuclei counts. Type of data set: cell-based. The settings on record: New Zealand White, rabbit, 1 min, 8 %. On the procedure: (§2) Whole New Zealand White rabbit eyes were used Prior to exposure a 10-mm internal dosing ring (FIG. 12A, part of the IVD kit) was placed over the central cornea that was then exposed to NaOCl.
Prior to each experiment (<1 h), NaOCl (CASRN 7681-52-9, Sigma-Aldrich, St. Louis, MO) was freshly diluted in sterile deionized water, mixed by five tube inversions prior to each application, and applied directly to the eyes (corneas) by transferring 100 μL with a micropipette into the dosing ring (FIG. 12A); the corneas were then exposed to this solution for exactly 1 min. […] The pH of the 32% NaOCl was measured using a Fisherbrand™ Accumet™ AB150 pH benchtop meter (Fisher Scientific, Waltham, MA). […]
Stained sections were viewed using a Leica DMRE fluorescence microscope (Leica Microsystems Inc., Buffalo Grove, IL). […] An L5 Fluorescence Filter Cube (Leica Microsystems Inc., Buffalo Grove, IL) was used for TUNEL and DoD imaging. Images were processed and analyzed using ImageJ software, version 1.54 (Schneider et al., 2012). […] Three corneal cryosections, each approximately 2.3 mm long and 0.5-0.9 mm wide (depending on swelling), were measured for each eye. To count TUNEL-positive nuclei, the number of discrete TUNEL-positive nuclei in the stroma that meet the size parameters associated with a keratocyte nucleus were recorded for each section using ImageJ software. […]

Data set [3] has the same test system. The data set can be described thus: Wash bottle study (500-mL bottle, active wash): TUNEL counts and depth of damage (DoD). In kind it is cell-based. As to conditions: eyes exposed to 32% sodium hypochlorite, then actively washed 15 min with 500 mL. On the procedure: as §2, §1
A 100-ml beaker or 500-mL emergency eye wash bottle (FIG. 12B) was used to prepare the AA solution and wash the eyes (Lebrun and Nguyen, 2024). These containers hold a ready-to-use eye wash buffer (EWB) solution composed of potassium chloride (CASRN 7447-40-7, 2.7 mM; Fisher Scientific), potassium phosphate monobasic (CASRN 7778-77-0, 1.5 mM; Fisher Scientific), sodium chloride (CASRN 7647-14-5, 137.9 mM; Fisher Scientific), sodium phosphate dibasic (CASRN 7782-85-6, 8.1 mM; Sigma Aldrich), deionized water (ReadyRefresh, Stamford, CT), 1% dextran (CASRN 9004-54-0; Sigma Aldrich), and 1% bovine serum albumin (CASRN 9048-46-8; Sigma Aldrich). Before use, different amounts of powdered AA (CASRN 50-81-7; Sigma Aldrich) are dispersed into the liquid component and rapidly mixed to achieve a predefined concentration (Lebrun et al., 2021c, 2021d, 2021e) to form complete EWB+AA. […] The pH of the liquid portion of the wash solution is adjusted to 7.2 with HCl to ensure that the final wash solution for the 0.2% powdered AA reaches a pH of 6.99±0.5. For the 10% AA condition, the pH was further adjusted to 6.99±0.5 with 1 N NaOH. For the EWB only condition, the pH was adjusted to 6.99±0.5 with 1 N HCl. For the wash step, eyes were either passively soaked in beakers (100-mL conditions) or washed with an eyewash bottle (500-mL conditions) for the indicated times. The eyewash bottle allows for forceful spraying and recycling of the 500-mL solution (Lebrun and Nguyen, 2024). While this bottle can be used in vivo or in vitro, for the in vitro study described here, the eyes were placed cornea-side down in the well at the top of the bottle, and the bottles were compressed so that a jet of solution washed over the eye (see FIG. 12B).
The corneas of whole eyes were exposed to either 100 μL of 32% NaOCl for 1 min or 100 μL deionized sterile water for 1 min (control condition) in a dosing ring. Eyes were then rinsed, and all eyes were washed using 500-mL wash bottles (FIG. 12B). Washing was with sterile tap water (municipal water, Anaheim, CA, 0.22-micron pore size filtered), EWB, or EWB+0.2% AA. After “washing,” eyes were processed following the “postexposure” steps described below.
After washing, eyes were placed in fresh postexposure wells (part of the IVD kit) containing approximately 1.5 mL OM added to the level of the limbus. Eyes were then placed back into a humidified, 5% CO2, 37° C. incubator for 24 h. Corneas were then removed by dissection, placed in 4% paraformaldehyde in phosphate-buffered saline (fixative; Boston BioProducts, Inc., Milford, MA), and stored at 4° C.
After a minimum of 24 h in fixative, corneas were cut in half and infiltrated with 30% sucrose (Capella et al., 1965), and the tissues were then embedded in Tissue-Tek® O.C.T. compound (Sakura Finetek, Torrance, CA), snap frozen in liquid nitrogen, and stored in an ultralow freezer (−80° C., New Brunswick Scientific, Hamburg, Germany). […]

Another data set concerns cornea. As to conditions: cited from earlier work.
The test system of a further data set is eye. As to conditions: eye damage classification; cited from earlier work. Note: key: GHS Category 1 (Chemicals that cause extreme and irreversible damage to the eye).
For data set [4] the following is noted: most extreme pH value found for each chemical; includes diluted chemicals; cited from earlier work.

“And” between values parts separate entries of the source, which are not always exact repeats. Identical values can stand only once. “Also recorded” adds a separate entry of the source. Like-named read-outs stand apart in the source and are kept apart here.

Turning to `OCl` [NaOCl, sodium hypochlorite], the pH in data set [1] is 12.04 and 12. Besides, in data set [2], the “TUNEL positive nuclei count, AVG ± SE (overall average)” value (from here on “TUNEL positive nuclei count, AVG ± SE”) is recorded as 3.1 ± 3.1.

For Water, in data set [3], the “Depth of Damage (DoD), AVG ± SE (overall average)” value is listed as 59.6 ± 3.6%; the “Depth of Damage (DoD), S. AVG ± SE (section average per eye)” value was 44.2 ± 2.8% and 68.5 ± 0.5% and 60.9 ± 0.7%; the “TUNEL positive nuclei count, AVG ± SE” value is listed as 254.9 ± 17.8; the “TUNEL positive nuclei count, S. AVG ± SE (section average per eye)” value is 231.0 ± 4.0 and 238.0 ± 2.6 and 287.7 ± 4.1. Moreover, the “TUNEL positive nuclei count, AVG ± SE” value in data set [3] (listed as tap water) is listed as 254.9±17.8. Further, in data set [3] (listed as water), the “Depth of Damage (DoD), AVG ± SE (overall average)” value was 59.6±3.6%; the “Depth of Damage (DoD), S. AVG ± SE (section average per eye)” value is 44.2±2.8% and 68.5±0.5% and 60.9±0.7%; the “TUNEL positive nuclei count, AVG ± SE” value was 254.9±17.8; the “TUNEL positive nuclei count, S. AVG ± SE (section average per eye)” value is 231.0±4.0 and 238.0±2.6 and 287.7±4.1. Besides, in data set [3] (per eye), the “Depth of Damage (DoD), Section A” value is 47.0% and 68.4% and 62.3%; the “Depth of Damage (DoD), Section B” value was 41.4% and 69.4% and 59.8%; the “TUNEL positive nuclei count, Section A” value was 227.0 and 234.0 and 289.0; the “TUNEL positive nuclei count, Section B” value is 235.0 and 243.0 and 280.0. In addition, in data set [3] (per eye, listed as water), the “Depth of Damage (DoD), Section A” value is 47.0% and 68.4% and 62.3%; the “Depth of Damage (DoD), Section B” value is 41.4% and 69.4% and 59.8%; the “Depth of Damage (DoD), Section C” value was 67.6% and 60.7%; the “TUNEL positive nuclei count, Section A” value is 227.0 and 234.0 and 289.0. For the same compound, in data set [3] (per eye, listed as water), the “TUNEL positive nuclei count, Section B” value is 235.0 and 243.0 and 280.0; the “TUNEL positive nuclei count, Section C” value is 237.0 and 294.0.

Turning to `O=C1O[C@H]([C@@H](O)CO)C(O)=C1O` [AA, ascorbic acid], the “effect on corneal ulceration” value with cornea (subcutaneous injection of 15% AA solution within 3 h of the burn, once daily) is reported as “ineffective; also recorded: not effective”; with cornea (topical 10% AA eye drop pH 7.2, 2 h after the burn and hourly for 14 h per day), “reduced corneal ulceration”.

On to `O=C(O)c1ccc(O)cc1O` [compound 64], for which the “in vivo GHS” value in the data set with eye was 1. Further, the pH in data set [4] is given as 3.0.

For `Nc1ccc(F)cc1` [compound 50], the “in vivo GHS” value in the data set on eye is 1. For the same compound, the pH in data set [4] was 7.4.

In the case of `C=CC(=O)OCCOCCOCCOCCOC(=O)C=C` [compound 42], the “in vivo GHS” value with eye is on record as 1. Besides, the pH in data set [4] is reported as 5.2.

As to `CCCCOCCO` [compound 46], the “in vivo GHS” value with eye is recorded as 1. Further, the pH in data set [4] is 7.0.

As to `c1c[nH]cn1` [compound 54], the “in vivo GHS” value in the data set with eye is 1. For the same compound, the pH in data set [4] is 10.5.

The record behind these values is patent publication US12648892B2, “Emergency eye wash” (Lebrun Labs LLC, priority 2024, dated 2026).
